According to the CheMixHub ionic liquid set:
± gives the uncertainty stated by the source.

Experiment: xn = mol fraction of the nth substance listed
Conditions: for electrical conductivity: 308.15 K

CCCCCCCCCCCCCCCC[n+]1ccccc1.[Cl-] + NCC(=O)O + O
101 kPa
Conditions | electrical conductivity [S/m]
x2 = 0, x1 = 5.4e-07 | 0.000222 ± 2e-06
x2 = 0, x1 = 9e-07 | 0.00029 ± 3e-06
x2 = 0, x1 = 1.62e-06 | 0.0004 ± 4e-06
x2 = 0, x1 = 2.34e-06 | 0.000465 ± 5e-06
x2 = 0, x1 = 2.88e-06 | 0.000581 ± 6e-06
x2 = 0, x1 = 3.78e-06 | 0.000705 ± 7e-06
x2 = 0, x1 = 4.5e-06 | 0.000794 ± 8e-06
x2 = 0, x1 = 5.59e-06 | 0.000937 ± 9e-06
x2 = 0, x1 = 6.85e-06 | 0.00106 ± 1.1e-05
x2 = 0, x1 = 7.93e-06 | 0.001222 ± 1.2e-05
x2 = 0, x1 = 9.01e-06 | 0.001438 ± 1.4e-05
x2 = 0, x1 = 1.009e-05 | 0.00159 ± 1.6e-05
x2 = 0, x1 = 1.117e-05 | 0.001701 ± 1.7e-05
x2 = 0, x1 = 1.442e-05 | 0.00209 ± 2.1e-05
x2 = 0, x1 = 1.55e-05 | 0.00219 ± 2.2e-05
x2 = 0, x1 = 1.766e-05 | 0.00237 ± 2.4e-05
x2 = 0, x1 = 1.982e-05 | 0.00248 ± 2.5e-05
x2 = 0, x1 = 2.18e-05 | 0.00259 ± 2.6e-05
x2 = 0, x1 = 2.397e-05 | 0.00264 ± 2.6e-05
x2 = 0, x1 = 2.595e-05 | 0.00278 ± 2.8e-05
x2 = 0, x1 = 2.991e-05 | 0.00297 ± 3e-05
x2 = 0, x1 = 3.406e-05 | 0.00314 ± 3.1e-05
x2 = 0, x1 = 3.784e-05 | 0.00328 ± 3.3e-05
x2 = 0, x1 = 4.162e-05 | 0.00342 ± 3.4e-05
x2 = 0, x1 = 4.541e-05 | 0.00356 ± 3.6e-05
x2 = 0, x1 = 4.919e-05 | 0.00369 ± 3.7e-05
x2 = 0, x1 = 5.099e-05 | 0.00375 ± 3.8e-05
x2 = 0, x1 = 5.982e-05 | 0.00403 ± 4e-05
x2 = 0, x1 = 6.829e-05 | 0.00432 ± 4.3e-05
x2 = 0, x1 = 7.64e-05 | 0.00454 ± 4.5e-05
x2 = 0, x1 = 8.415e-05 | 0.00477 ± 4.8e-05
x2 = 0, x1 = 9.171e-05 | 0.00497 ± 5e-05
x2 = 0, x1 = 9.892e-05 | 0.00516 ± 5.2e-05
x2 = 0, x1 = 0.0001058 | 0.00533 ± 5.3e-05
x2 = 0, x1 = 0.0001124 | 0.0055 ± 5.5e-05
x2 = 0, x1 = 0.0001189 | 0.00565 ± 5.7e-05
x2 = 2.018e-05, x1 = 5.4e-07 | 0.0001 ± 1e-06
x2 = 2.018e-05, x1 = 9e-07 | 0.000245 ± 3e-06
x2 = 2.018e-05, x1 = 1.62e-06 | 0.000348 ± 4e-06
x2 = 2.018e-05, x1 = 2.34e-06 | 0.000456 ± 5e-06
x2 = 2.018e-05, x1 = 2.88e-06 | 0.000621 ± 6e-06
x2 = 2.018e-05, x1 = 3.78e-06 | 0.000716 ± 7e-06
x2 = 2.018e-05, x1 = 4.51e-06 | 0.000822 ± 8e-06
x2 = 2.018e-05, x1 = 5.59e-06 | 0.000964 ± 1e-05
x2 = 2.018e-05, x1 = 6.85e-06 | 0.00108 ± 1.1e-05
x2 = 2.018e-05, x1 = 7.93e-06 | 0.001203 ± 1.2e-05
x2 = 2.018e-05, x1 = 9.01e-06 | 0.001314 ± 1.3e-05
x2 = 2.018e-05, x1 = 1.009e-05 | 0.001427 ± 1.4e-05
x2 = 2.018e-05, x1 = 1.117e-05 | 0.001546 ± 1.5e-05
x2 = 2.018e-05, x1 = 1.334e-05 | 0.001813 ± 1.8e-05
x2 = 2.018e-05, x1 = 1.55e-05 | 0.00205 ± 2.1e-05
x2 = 2.018e-05, x1 = 1.766e-05 | 0.00226 ± 2.3e-05
x2 = 2.018e-05, x1 = 1.982e-05 | 0.0024 ± 2.4e-05
x2 = 2.018e-05, x1 = 2.181e-05 | 0.00252 ± 2.5e-05
x2 = 2.018e-05, x1 = 2.397e-05 | 0.00262 ± 2.6e-05
x2 = 2.018e-05, x1 = 2.595e-05 | 0.0027 ± 2.7e-05
x2 = 2.018e-05, x1 = 3.009e-05 | 0.00285 ± 2.9e-05
x2 = 2.018e-05, x1 = 3.406e-05 | 0.00306 ± 3.1e-05
x2 = 2.018e-05, x1 = 3.802e-05 | 0.00323 ± 3.2e-05
x2 = 2.018e-05, x1 = 4.181e-05 | 0.00336 ± 3.4e-05
x2 = 2.018e-05, x1 = 4.559e-05 | 0.0035 ± 3.5e-05
x2 = 2.018e-05, x1 = 4.92e-05 | 0.00362 ± 3.6e-05
x2 = 2.018e-05, x1 = 5.1e-05 | 0.00368 ± 3.7e-05
x2 = 2.018e-05, x1 = 6.001e-05 | 0.00392 ± 3.9e-05
x2 = 2.018e-05, x1 = 6.848e-05 | 0.00422 ± 4.2e-05
x2 = 2.018e-05, x1 = 7.658e-05 | 0.00445 ± 4.5e-05
x2 = 2.018e-05, x1 = 8.433e-05 | 0.00467 ± 4.7e-05
x2 = 2.018e-05, x1 = 9.19e-05 | 0.00486 ± 4.9e-05
x2 = 2.018e-05, x1 = 9.911e-05 | 0.00506 ± 5.1e-05
x2 = 2.018e-05, x1 = 0.000106 | 0.00523 ± 5.2e-05
x2 = 2.018e-05, x1 = 0.0001126 | 0.00538 ± 5.4e-05
x2 = 2.018e-05, x1 = 0.0001191 | 0.00553 ± 5.5e-05
x2 = 0.0002, x1 = 5.4e-07 | 0.000232 ± 2e-06
x2 = 0.0002, x1 = 9e-07 | 0.000298 ± 3e-06
x2 = 0.0002, x1 = 1.62e-06 | 0.00042 ± 4e-06
x2 = 0.0002, x1 = 2.16e-06 | 0.000524 ± 5e-06
x2 = 0.0002, x1 = 2.89e-06 | 0.000628 ± 6e-06
x2 = 0.0002, x1 = 3.79e-06 | 0.000685 ± 7e-06
x2 = 0.0002, x1 = 4.51e-06 | 0.000861 ± 9e-06
x2 = 0.0002, x1 = 5.59e-06 | 0.001036 ± 1e-05
x2 = 0.0002, x1 = 6.67e-06 | 0.00115 ± 1.2e-05
x2 = 0.0002, x1 = 7.75e-06 | 0.00127 ± 1.3e-05
x2 = 0.0002, x1 = 8.84e-06 | 0.001426 ± 1.4e-05
x2 = 0.0002, x1 = 9.92e-06 | 0.00157 ± 1.6e-05
x2 = 0.0002, x1 = 1.1e-05 | 0.00168 ± 1.7e-05
x2 = 0.0002, x1 = 1.316e-05 | 0.001913 ± 1.9e-05
x2 = 0.0002, x1 = 1.533e-05 | 0.00214 ± 2.1e-05
x2 = 0.0002, x1 = 1.731e-05 | 0.00228 ± 2.3e-05
x2 = 0.0002, x1 = 1.947e-05 | 0.00243 ± 2.4e-05
x2 = 0.0002, x1 = 2.146e-05 | 0.00253 ± 2.5e-05
x2 = 0.0002, x1 = 2.344e-05 | 0.00262 ± 2.6e-05
x2 = 0.0002, x1 = 2.56e-05 | 0.00272 ± 2.7e-05
x2 = 0.0002, x1 = 2.957e-05 | 0.00291 ± 2.9e-05
x2 = 0.0002, x1 = 3.336e-05 | 0.00307 ± 3.1e-05
x2 = 0.0002, x1 = 3.732e-05 | 0.00323 ± 3.2e-05
x2 = 0.0002, x1 = 4.111e-05 | 0.00337 ± 3.4e-05
x2 = 0.0002, x1 = 4.472e-05 | 0.0035 ± 3.5e-05
x2 = 0.0002, x1 = 4.832e-05 | 0.00363 ± 3.6e-05
x2 = 0.0002, x1 = 5.012e-05 | 0.0037 ± 3.7e-05
x2 = 0.0002, x1 = 5.878e-05 | 0.00399 ± 4e-05

CCCCCCCCCC(=O)O + CCCCCCCCCCCCCC[P+](CCCCCC)(CCCCCC)CCCCCC.[Cl-]
100 kPa, x2 = 0.3333
Conditions | viscosity [mPa·s]
293 K | 350 ± 140
298 K | 260 ± 110
318 K | 94 ± 38
328 K | 63 ± 25
333 K | 53 ± 21

CCCCCC[n+]1ccccc1.O=[N+]([O-])[O-] + O
298.15 K, 101 kPa
Conditions | viscosity [mPa·s]
x1 = 0.0002072 | 0.9698 ± 0.0081
x1 = 0.0003855 | 1.002 ± 0.0083
x1 = 0.0005691 | 1.012 ± 0.0083
x1 = 0.0007311 | 1.033 ± 0.0085
x1 = 0.0009416 | 1.045 ± 0.0085
x1 = 0.001112 | 1.058 ± 0.0086
x1 = 0.001262 | 1.069 ± 0.0087
x1 = 0.00145 | 1.101 ± 0.0089
x1 = 0.001634 | 1.107 ± 0.0089
x1 = 0.001826 | 1.122 ± 0.0091
x1 = 0.003609 | 1.219 ± 0.0097
x1 = 0.005402 | 1.312 ± 0.01
x1 = 0.007153 | 1.39 ± 0.011
x1 = 0.008806 | 1.453 ± 0.012
x1 = 0.01076 | 1.515 ± 0.012
x1 = 0.01248 | 1.581 ± 0.013
x1 = 0.01427 | 1.646 ± 0.013
x1 = 0.01599 | 1.702 ± 0.014
x1 = 0.01772 | 1.758 ± 0.015
